Drawing on patent US20240400553A1, “AMINE BASED MATRIPTASE 2 INHIBITORS AND USES THEREOF” (Disc Medicine, Inc., priority 2023, published 2024), this text covers Ki for twelve compounds.

Some results are limits rather than exact numbers.

The first assay deals with T1, Human Recombinant Matriptase 2 (Homo sapiens, UniProt Q8IU80).
T1 construct: made in house
T1 sequence (Q8IU80 1-811): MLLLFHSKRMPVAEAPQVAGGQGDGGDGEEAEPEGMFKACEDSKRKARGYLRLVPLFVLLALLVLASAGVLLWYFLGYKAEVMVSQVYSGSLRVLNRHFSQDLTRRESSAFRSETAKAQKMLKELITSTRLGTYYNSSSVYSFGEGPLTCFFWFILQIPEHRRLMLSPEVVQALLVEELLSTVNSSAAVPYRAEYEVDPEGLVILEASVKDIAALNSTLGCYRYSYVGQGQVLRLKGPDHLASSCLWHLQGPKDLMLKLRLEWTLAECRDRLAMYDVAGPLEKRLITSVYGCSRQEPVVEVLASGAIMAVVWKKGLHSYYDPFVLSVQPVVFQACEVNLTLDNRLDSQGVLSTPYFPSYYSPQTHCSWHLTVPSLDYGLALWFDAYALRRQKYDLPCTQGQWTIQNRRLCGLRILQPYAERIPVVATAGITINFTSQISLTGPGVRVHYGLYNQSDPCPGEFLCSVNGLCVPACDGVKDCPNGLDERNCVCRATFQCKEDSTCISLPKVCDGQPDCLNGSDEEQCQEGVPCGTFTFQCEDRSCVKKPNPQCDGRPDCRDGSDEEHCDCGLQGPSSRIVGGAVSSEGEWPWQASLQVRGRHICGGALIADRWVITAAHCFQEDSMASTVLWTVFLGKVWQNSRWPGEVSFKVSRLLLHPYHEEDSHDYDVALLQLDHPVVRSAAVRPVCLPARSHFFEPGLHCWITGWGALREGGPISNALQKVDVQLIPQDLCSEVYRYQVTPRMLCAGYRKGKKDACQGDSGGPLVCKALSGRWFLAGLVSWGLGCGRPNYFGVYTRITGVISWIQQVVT
As to the kind of experiment: Matriptase 2 inhibition, fluorescence based assay (Method I). Format: biochemical. Conditions: Table A; Ki of Matriptase-2; read-out: Mat-2 Ki. The method, boiled down:
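Fluorogenic readout (Ex 360/Em 480 nm) taken 60 min after adding 62 μM Boc-Gln-Ala-Arg-AMC, following 30-min enzyme–compound preincubation at 25 °C. Conditions: 3.5 nM in-house enzyme, pH 7.5 Tris/NaCl/gelatin buffer, 1% DMSO; percent inhibition versus concentration fitted by variable-slope sigmoidal regression.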
On to `CC(=O)N(C)CCOC(=O)c1cc2ccc(CN)nc2n1Cc1cc(NS(=O)(=O)Cc2c(C)cccc2C)cc2ccccc12` [Compound 197, 2-(N-methylacetamido)-ethyl 6-(aminomethyl)-1-({3-[(2,6-dimethylphen-yl)methanesulfonamido]-naphthalen-1-yl}methyl)-1H-pyrrolo[2,3-b]pyr-idine-2-carboxylate], for which the Ki was at most 100 nM. Still for that read-out and setting: the figure for `NCc1ccc2cc(C(=O)O)n(Cc3cc(NS(=O)(=O)Cc4ccsc4)cc4ccccc34)c2n1` [Compound 4] is at most 100 nM; for `CN1CCCC[C@@H]1COC(=O)c1cc2ccc(CN)nc2n1Cc1cc(NS(=O)(=O)Cc2ccccc2)cc2ccccc12` (racemic) [Compound 63, (1-methylpiperidin-2-yl)methyl 6-(aminometh-yl)-1-{[3-(phenylmeth-anesulfonamido)naph-thalen-1-yl]lmethyl}-1H-pyrrolo[2,3-b]pyridine-2-carboxylate] it is at most 100 nM. On the same count and under the same terms, to `NCc1ccc2cc(C(=O)OCCCN3CCOCC3)n(Cc3cc(NS(=O)(=O)Cc4ccccc4)cc4ccccc34)c2n1` [Compound 133, 3-(morpholin-4-yl)prop-yl 6-(aminomethyl)-1-{[3-(phenylmethanesul-fonamido)naphthalen-1-ylmethyl}-1H-pyrrolo-[2,3-b]pyridine-2-car-boxylate] belongs 100 to 500 nM; to `C[C@@H](CCOC(=O)c1cc2ccc(CN)nc2n1Cc1cc(NS(=O)(=O)Cc2ccccc2)cc2ccccc12)N1CCOCC1` (racemic) [Compound 143, rac-(3R)-3-(morpholin-4-yl)butyl 6-(aminometh-yl)-1-{[3-(phenylmeth-anesulfonamido)naph-thalen-1-yl]methyl}-1H-pyrrolo-[2,3-b]pyridine-2-carboxylate], at most 100 nM; to `COCCN1CCC(COC(=O)c2cc3ccc(CN)nc3n2Cc2cc(NS(=O)(=O)Cc3c(C)cccc3C)cc3ccccc23)CC1` [Compound 192, [1-(2-methoxyethyl)-piperidin-4-yl]methyl 6-(aminomethyl)-1-({3-[(2,6-dimethylphenyl)-methanesulfonamido]-naphthalen-1-yl}meth-yl)-1H-pyrrolo[2,3-b]-pyridine-2-carboxylate], at most 100 nM. The same measure, in the same setting: the figure for `CC(C)N(C)CCOC(=O)c1cc2ccc(CN)nc2n1Cc1cc(NS(=O)(=O)Cc2ccccc2)cc2ccccc12` [Compound 52, 2-[methyl(propan-2-yl)-amino]ethyl 6-(amino-methyl)-1-{[3-(phenyl-methanesulfonamido)-naphthalen-1-yl]methyl}-1H-pyrrolo[2,3-b]pyr-idine-2-carboxylate] is at most 100 nM.

In the case of `NCc1ccc2cc(C(=O)OCCN3CCOC3=O)n(Cc3cc(NS(=O)(=O)Cc4ccccc4)cc4ccccc34)c2n1` [Compound 130], the inhibition constant Ki fell in the range of 100 to 500 nM.

The assay is the same for the next values; noted with them: Table A; Ki of Matriptase-2 given as class symbols; read-out: Mat-2 Ki.
Take `NCc1ccc2cc(C(N)=O)n(Cc3cc(NS(=O)(=O)CC[C@@H]4CCCN4)cc4ccccc34)c2n1` [Compound 213, 6-(aminomethyl)-1-[(3-{2-[(2S)-pyrrolidin-2-yl]ethanesulfonamido}-naphthalen-1-yl)methyl]-1H-pyrrolo[2,3-b]pyr-idine-2-carboxamide]: the Ki is at most 100 nM.

For the compound `CC(=O)O[C@H](C)OC(=O)c1cc2ccc(CN)nc2n1Cc1cc(NS(=O)(=O)CC2CCNCC2)cc2ccccc12` (racemic) [Compound 263, 1-[6-(aminomethyl)-1-({3-[(piperidin-4-yl)-methanesulfonamido]-naphthlen-1-yl}methyl)-1H-pyrrolo[2,3-b]pyr-idine-2-carbonyloxy]-ethyl acetate], the inhibitory constant (Ki) fell in the range of 100 to 500 nM. Same read-out and setting: to `NCc1ccc2cc(-c3nnn[nH]3)n(Cc3cc(NS(=O)(=O)Cc4ccccc4)cc4ccccc34)c2n1` [Compound 366, N-(4-((6-(aminomethyl)-2-(1H-tetrazol-5-yl)-1H-pyrrolo[2,3-b]pyridin-1-yl)methyl)naphthalen-2-yl)-1-phenylmethanesulfonamide] belongs at most 100 nM.

Staying with this assay, now noted: Table B; Human Recombinant Matriptase 2, 3.5 nM enzyme, 62 μM substrate, 30 mins preincubation; read-out: Mean Ki.
With `C=Cc1c(N)cc(Br)cc1Cn1c(C(=O)OCC2CCN(C)CC2)cc2ccc(CN)nc21` [Compound 2.30], the Ki was over 3000 nM.
